Reference: patent publication US20200231638A1, “STABILIZED ANTI-MICROBIAL PEPTIDES” (priority 2015, published 2020)
Bridge positions count the residues as written; N and C are the ends. Square brackets hold non-standard residues; d marks the D form. Peptide text beside a SMILES is read from it. R8 = C=CCCCCCC[C@@](C)(N)C(=O)O; S5 = C=CCCC[C@](C)(N)C(=O)O; Nle = CCCC[C@H](N)C(=O)O

How the values were obtained:
[1] = test system: B. cereus; type: cell-based, Bacillus cereus
How it was run: (§1)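 Microdilution MIC test in polyanion-depleted MHB, with a final inoculum of 5×10^5 CFU/ml and 20-24 h incubation at 37° C.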

[2] = test system: P. aeruginosa; type: cell-based, Pseudomonas aeruginosa
How it was run: as §1

[3] = test system: human red blood cells; type: cell-based; conditions: red cells of human, 1 h, 25
How it was run: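 Hemolysis expressed as absorbance of released hemoglobin (570 nm) normalized between untreated and 1% Triton-X100 controls, with MHC taken as peptide concentration giving under 1% release. Peptide dilutions were exposed for 1 h at 37° C to a 1% (v/v) suspension of washed human red cells in PBS.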

[4] = test system: E. coli; type: cell-based, Escherichia coli
How it was run: as §1

[5] = test system: S. aureus; type: cell-based, Staphylococcus aureus
How it was run: as §1

SMILES	MIC B. cereus [1] [µg/mL]	MIC P. aeruginosa [2] [µg/mL]	% Hemolysis at 25 μg/ml [3] [%]	MIC E. coli [4] [µg/mL]	MIC S. aureus [5] [µg/mL]
CCCC[C@H](NC(=O)[C@@H](NC(=O)[C@H](CCC(=O)O)NC(=O)CNC(=O)[C@@H](NC(=O)[C@H](Cc1ccccc1)NC(=O)[C@]1(C)CCCC=CCCCCCC[C@@](C)(NC(=O)[C@H](Cc2c[nH]cn2)NC(=O)[C@H](CC(C)C)NC(=O)[C@H](Cc2ccccc2)NC(=O)[C@H](CCCCN)NC(=O)CNC(=O)[C@@H](NC(=O)CN)[C@@H](C)CC)C(=O)N[C@@H](C)C(=O)N[C@@H](CCCCN)C(=O)N[C@@H](CCCCN)C(=O)N[C@@H](Cc2ccccc2)C(=O)NCC(=O)N[C@@H](CCCCN)C(=O)N1)C(C)C)[C@@H](C)CC)C(=O)N[C@@H](CC(N)=O)C(=O)N[C@@H](CO)C(N)=O [Mag(i + 7)7] (H-GIGKFLH[R8]AKKFGK[S5]FVGEI[Nle]NS-NH2; staple 8-15 (inferred); N-terminus and C-terminus assumed)	3.1	6.2	95.5	3.1	3.1
CCCC[C@@H]1NC(=O)[C@H]([C@@H](C)CC)NC(=O)[C@@](C)(NC(=O)CNC(=O)[C@@H](NC(=O)[C@H](Cc2ccccc2)NC(=O)[C@H](C)NC(=O)[C@H](CCCCN)NC(=O)CNC(=O)[C@H](Cc2ccccc2)NC(=O)[C@H](CCCCN)NC(=O)[C@H](CCCCN)NC(=O)[C@H](C)NC(=O)[C@H](CO)NC(=O)[C@H](Cc2c[nH]cn2)NC(=O)[C@H](CC(C)C)NC(=O)[C@H](Cc2ccccc2)NC(=O)[C@H](CCCCN)NC(=O)CNC(=O)[C@@H](NC(=O)CN)[C@@H](C)CC)C(C)C)CCCC=CCCC[C@@](C)(C(N)=O)NC(=O)[C@H](CC(N)=O)NC1=O [Mag(i + 4)18, GIGKFLHSAKKFGKAFVGXIBNX] (H-GIGKFLHSAKKFGKAFVG[S5]I[Nle]N[S5]-NH2; staple 19-23)	3.1	3.1	96.5	1.6	1.6
CCCC[C@H](NC(=O)[C@]1(C)CCCC=CCCC[C@](C)(NC(=O)[C@H](C)NC(=O)[C@H](CCCCN)NC(=O)[C@@H](CCCCN)NC(=O)[C@H](Cc2ccccc2)NC(=O)[C@H](CCCCN)NC(=O)[C@H](CCCCN)NC(=O)[C@H](C)NC(=O)[C@H](CO)NC(=O)[C@H](Cc2c[nH]cn2)NC(=O)[C@H](CC(C)C)NC(=O)[C@H](Cc2ccccc2)NC(=O)[C@H](CCCCN)NC(=O)CNC(=O)[C@@H](NC(=O)CN)[C@@H](C)CC)C(=O)N[C@@H](C(C)C)C(=O)NCC(=O)N[C@@H](CCC(=O)O)C(=O)N1)C(=O)N[C@@H](CC(N)=O)C(=O)N[C@@H](CO)C(N)=O [Mag(i + 4)15(G13k)] (H-GIGKFLHSAKKF[dK]KA[S5]VGE[S5][Nle]NS-NH2; staple 16-20)	50	25	2.1	3.1	>50
CCCC[C@H](NC(=O)[C@]1(C)CCCC=CCCC[C@](C)(NC(=O)[C@H](C)NC(=O)[C@H](CCCCN)NC(=O)CNC(=O)[C@H](Cc2ccccc2)NC(=O)[C@H](CCCCN)NC(=O)[C@H](CCCCN)NC(=O)[C@H](CCCCN)NC(=O)[C@H](CO)NC(=O)[C@H](Cc2c[nH]cn2)NC(=O)[C@H](CC(C)C)NC(=O)[C@H](Cc2ccccc2)NC(=O)[C@H](CCCCN)NC(=O)CNC(=O)[C@@H](NC(=O)CN)[C@@H](C)CC)C(=O)N[C@@H](C(C)C)C(=O)NCC(=O)N[C@@H](CCC(=O)O)C(=O)N1)C(=O)N[C@@H](CC(N)=O)C(=O)N[C@@H](CO)C(N)=O [Mag(i + 4)15(A9K), GIGKFLHSKKKFGKAXVGEXBNS] (H-GIGKFLHSKKKFGKA[S5]VGE[S5][Nle]NS-NH2; staple 16-20)	>50	12.5	1.9	3.1	>50
CCCC[C@H](NC(=O)[C@]1(C)CCCC=CCCC[C@](C)(NC(=O)[C@H](C)NC(=O)[C@H](CCCCN)NC(=O)CNC(=O)[C@H](Cc2ccccc2)NC(=O)[C@H](CCCCN)NC(=O)[C@H](CCCCN)NC(=O)[C@H](C)NC(=O)[C@H](CO)NC(=O)[C@H](CCCCN)NC(=O)[C@H](CC(C)C)NC(=O)[C@H](Cc2ccccc2)NC(=O)[C@H](CCCCN)NC(=O)CNC(=O)[C@@H](NC(=O)CN)[C@@H](C)CC)C(=O)N[C@@H](C(C)C)C(=O)NCC(=O)N[C@@H](CCC(=O)O)C(=O)N1)C(=O)N[C@@H](CC(N)=O)C(=O)N[C@@H](CO)C(N)=O [Mag(i + 4)15(H7K), GIGKFLKSAKKFGKAXVGEXBNS] (H-GIGKFLKSAKKFGKA[S5]VGE[S5][Nle]NS-NH2; staple 16-20; N-terminus and C-terminus assumed)	3.1	3.1	3.1	1.6	6.2
CC(C)C[C@H](NC(=O)[C@H](Cc1ccc(O)cc1)NC(=O)[C@H](Cc1c[nH]cn1)NC(=O)[C@@H](NC(=O)[C@H](CC(C)C)NC(=O)[C@]1(C)CCCC=CCCC[C@](C)(NC(=O)[C@H](Cc2c[nH]cn2)NC(=O)[C@H](CCCCN)NC(=O)CNC(=O)[C@@H](NC(=O)[C@H](Cc2c[nH]cn2)NC(=O)[C@H](C)NC(=O)[C@H](CCCCN)NC(=O)[C@H](CCCCN)NC(=O)[C@H](CCCCN)NC(=O)[C@]2(C)CCCC=CCCC[C@](C)(NC(=O)CN)C(=O)NCC(=O)N[C@@H](CO)C(=O)N[C@@H](Cc3ccccc3)C(=O)N2)C(C)C)C(=O)NCC(=O)N[C@@H](CCCCN)C(=O)N[C@@H](C)C(=O)N1)[C@@H](C)O)C(N)=O [Pleu(i + 4)1, 15(A9K)] (H-G[S5]GSF[S5]KKKAHVGKH[S5]GKA[S5]LTHYL-NH2; staple 2-6, 16-20; N-terminus assumed)	3.1	1.6	16.3	1.6	3.1
CCCC[C@H](NC(=O)[C@@H](NC(=O)[C@H](CCC(=O)O)NC(=O)[C@]1(C)CCCC=CCCC[C@](C)(NC(=O)CNC(=O)[C@H](Cc2ccccc2)NC(=O)[C@H](CCCCN)NC(=O)[C@H](CCCCN)NC(=O)[C@H](C)NC(=O)[C@H](CO)NC(=O)[C@H](Cc2c[nH]cn2)NC(=O)[C@H](CC(C)C)NC(=O)[C@H](Cc2ccccc2)NC(=O)[C@H](CCCCN)NC(=O)CNC(=O)[C@@H](NC(=O)CN)[C@@H](C)CC)C(=O)N[C@@H](C)C(=O)N[C@@H](Cc2ccccc2)C(=O)N[C@@H](C(C)C)C(=O)N1)[C@@H](C)CC)C(=O)N[C@@H](CC(N)=O)C(=O)N[C@@H](CO)C(N)=O [Mag(i + 4)13] (H-GIGKFLHSAKKFG[S5]AFV[S5]EI[Nle]NS-NH2; staple 14-18)	3.1	6.2	59.7	3.1	6.2
CCCC[C@@H]1NC(=O)[C@H]([C@@H](C)CC)NC(=O)[C@H](CCC(=O)O)NC(=O)[C@@](C)(NC(=O)[C@@H](NC(=O)[C@H](Cc2ccccc2)NC(=O)[C@H](C)NC(=O)[C@H](CCCCN)NC(=O)CNC(=O)[C@H](Cc2ccccc2)NC(=O)[C@H](CCCCN)NC(=O)[C@H](CCCCN)NC(=O)[C@H](C)NC(=O)[C@H](CO)NC(=O)[C@H](Cc2c[nH]cn2)NC(=O)[C@H](CC(C)C)NC(=O)[C@H](Cc2ccccc2)NC(=O)[C@H](CCCCN)NC(=O)CNC(=O)[C@@H](NC(=O)CN)[C@@H](C)CC)C(C)C)CCCC=CCCC[C@@](C)(C(=O)N[C@@H](CO)C(N)=O)NC1=O [Mag(i + 4)17] (H-GIGKFLHSAKKFGKAFV[S5]EI[Nle][S5]S-NH2; staple 18-22)	1.6	6.2	56.0	1.6	3.1
CC[C@H](C)[C@H](NC(=O)CN)C(=O)NCC(=O)N[C@@H](CCCCN)C(=O)N[C@@H](Cc1ccccc1)C(=O)N[C@@H](CC(C)C)C(=O)N[C@@H](Cc1c[nH]cn1)C(=O)N[C@@H](CO)C(=O)N[C@@H](C)C(=O)N[C@@H](CCCCN)C(=O)N[C@@H](CCCCN)C(=O)N[C@@H](Cc1ccccc1)C(=O)NCC(=O)N[C@@H](CCCCN)C(=O)N[C@@H](C)C(=O)N[C@@]1(C)CCCC=CCCC[C@@](C)(C(=O)N[C@@H](CCCCN)C(=O)N[C@@H](CC(N)=O)C(=O)N[C@@H](CO)C(N)=O)NC(=O)[C@H](CCC(=O)O)NC(=O)CNC(=O)[C@H](C(C)C)NC1=O [Mag(i + 4)15(B21K), GIGKFLHSAKKFGKAXVGEXKNS] (H-GIGKFLHSAKKFGKA[S5]VGE[S5]KNS-NH2; staple 16-20)	25	6.2	3.7	1.6	>50
CCCC[C@H](NC(=O)[C@@H](NC(=O)[C@H](CCC(=O)O)NC(=O)CNC(=O)[C@@H](NC(=O)[C@H](Cc1ccccc1)NC(=O)[C@H](C)NC(=O)[C@H](CCCCN)NC(=O)CNC(=O)[C@]1(C)CCCC=CCCCCCC[C@@](C)(NC(=O)[C@H](CCCCN)NC(=O)CNC(=O)[C@@H](NC(=O)CN)[C@@H](C)CC)C(=O)N[C@@H](CC(C)C)C(=O)N[C@@H](Cc2c[nH]cn2)C(=O)N[C@@H](CO)C(=O)N[C@@H](C)C(=O)N[C@@H](CCCCN)C(=O)N[C@@H](CCCCN)C(=O)N1)C(C)C)[C@@H](C)CC)C(=O)N[C@@H](CC(N)=O)C(=O)N[C@@H](CO)C(N)=O [Mag(i + 7)4] (H-GIGK[R8]LHSAKK[S5]GKAFVGEI[Nle]NS-NH2; staple 5-12 (inferred); N-terminus and C-terminus assumed)	6.2	3.1	42.6	1.6	25
